{
  "source": "ChEMBL document CHEMBL5131391",
  "about": "“One-pot three-component synthesis of novel pyrazolo[3,4-b]pyridines as potent antileukemic agents” (Eur J Med Chem, 2022)",
  "assay_type_in_all_cases": "functional",
  "key": {"[1]": {"system": "RS4-11", "assay": "Induction of cell cycle arrest in human RS4-11 cells assessed as accumulation of cells in G2/M phase measured after 48 hrs by PI staining based flow cytometry analysis", "settings": "dose 1.25-10 µM, DDE = dose-dependent effect"}, "[2]": {"system": "RS4-11", "assay": "Induction of cell cycle arrest in human RS4-11 cells assessed as accumulation of cells in subG1 phase at 1.25 to 10 uM measured after 72 hrs by PI staining based flow cytometry analysis", "settings": "dose 1.25-10 µM"}, "[3]": {"system": "K562", "assay": "Antiproliferative activity against human K562 cells assessed as growth inhibition measured after 48 hrs by NCI protocol based SRB assay"}, "[4]": {"system": "A549", "assay": "Antiproliferative activity against human A549 cells assessed as growth inhibition measured after 48 hrs by NCI protocol based SRB assay"}, "[5]": {"system": "EKVX", "assay": "Antiproliferative activity against human EKVX cells assessed as growth inhibition measured after 48 hrs by NCI protocol based SRB assay"}, "[6]": {"system": "NCI-H522", "assay": "Antiproliferative activity against human NCI-H522 cells assessed as growth inhibition measured after 48 hrs by NCI protocol based SRB assay"}, "[7]": {"system": "NCI-H23", "assay": "Antiproliferative activity against human NCI-H23 cells assessed as growth inhibition measured after 48 hrs by NCI protocol based SRB assay"}, "[8]": {"system": "HT-29", "assay": "Antiproliferative activity against human HT-29 cells assessed as growth inhibition measured after 48 hrs by NCI protocol based SRB assay"}, "[9]": {"system": "MDA-MB-435", "assay": "Antiproliferative activity against human MDA-MB-435 cells assessed as growth inhibition measured after 48 hrs by NCI protocol based SRB assay"}, "[10]": {"system": "SK-MEL-5", "assay": "Antiproliferative activity against human SK-MEL-5 cells assessed as growth inhibition measured after 48 hrs by NCI protocol based SRB assay"}, "[11]": {"system": "SK-MEL-28", "assay": "Antiproliferative activity against human SK-MEL-28 cells assessed as growth inhibition measured after 48 hrs by NCI protocol based SRB assay"}, "[12]": {"system": "SK-OV-3", "assay": "Antiproliferative activity against human SK-OV-3 cells assessed as growth inhibition measured after 48 hrs by NCI protocol based SRB assay"}, "[13]": {"system": "786-0", "assay": "Antiproliferative activity against human 786-0 cells assessed as growth inhibition measured after 48 hrs by NCI protocol based SRB assay"}, "[14]": {"system": "A498", "assay": "Antiproliferative activity against human A498 cells assessed as growth inhibition measured after 48 hrs by NCI protocol based SRB assay"}, "[15]": {"system": "RXF 393", "assay": "Antiproliferative activity against human RXF 393 cells assessed as growth inhibition measured after 48 hrs by NCI protocol based SRB assay"}, "[16]": {"system": "MDA-MB-231", "assay": "Antiproliferative activity against human MDA-MB-231 cells assessed as growth inhibition measured after 48 hrs by NCI protocol based SRB assay"}, "[17]": {"system": "MCF7", "assay": "Antiproliferative activity against human MCF7 cells assessed as growth inhibition measured after 48 hrs by NCI protocol based SRB assay"}, "[18]": {"system": "BT-549", "assay": "Antiproliferative activity against human BT-549 cells assessed as growth inhibition measured after 48 hrs by NCI protocol based SRB assay"}, "[19]": {"system": "CCRF-CEM", "assay": "Cytostatic activity in human CCRF-CEM cells assessed as tumor growth inhibition measured after 48 hrs by NCI protocol based SRB assay"}, "[20]": {"system": "HL-60(TB)", "assay": "Cytostatic activity in human HL-60(TB) cells assessed as tumor growth inhibition measured after 48 hrs by NCI protocol based SRB assay"}, "[21]": {"system": "K562", "assay": "Cytostatic activity in human K562 cells assessed as tumor growth inhibition measured after 48 hrs by NCI protocol based SRB assay"}, "[22]": {"system": "A549", "assay": "Cytostatic activity in human A549 cells assessed as tumor growth inhibition measured after 48 hrs by NCI protocol based SRB assay"}, "[23]": {"system": "NCI-H23", "assay": "Cytostatic activity in human NCI-H23 cells assessed as tumor growth inhibition measured after 48 hrs by NCI protocol based SRB assay"}, "[24]": {"system": "KM12", "assay": "Cytostatic activity in human KM12 cells assessed as tumor growth inhibition measured after 48 hrs by NCI protocol based SRB assay"}, "[25]": {"system": "HCC 2998", "assay": "Cytostatic activity in human HCC 2998 cells assessed as tumor growth inhibition measured after 48 hrs by NCI protocol based SRB assay"}, "[26]": {"system": "HT-29", "assay": "Cytostatic activity in human HT-29 cells assessed as tumor growth inhibition measured after 48 hrs by NCI protocol based SRB assay"}, "[27]": {"system": "SF-539", "assay": "Cytostatic activity in human SF-539 cells assessed as tumor growth inhibition measured after 48 hrs by NCI protocol based SRB assay"}, "[28]": {"system": "SF-295", "assay": "Cytostatic activity in human SF-295 cells assessed as tumor growth inhibition measured after 48 hrs by NCI protocol based SRB assay"}, "[29]": {"system": "SF-268", "assay": "Cytostatic activity in human SF-268 cells assessed as tumor growth inhibition measured after 48 hrs by NCI protocol based SRB assay"}, "[30]": {"system": "SNB-75", "assay": "Cytostatic activity in human SNB-75 cells assessed as tumor growth inhibition measured after 48 hrs by NCI protocol based SRB assay"}, "[31]": {"system": "LOX IMVI", "assay": "Cytostatic activity in human LOX IMVI cells assessed as tumor growth inhibition measured after 48 hrs by NCI protocol based SRB assay"}, "[32]": {"system": "IGROV-1", "assay": "Cytostatic activity in human IGROV-1 cells assessed as tumor growth inhibition measured after 48 hrs by NCI protocol based SRB assay"}, "[33]": {"system": "OVCAR-5", "assay": "Cytostatic activity in human OVCAR-5 cells assessed as tumor growth inhibition measured after 48 hrs by NCI protocol based SRB assay"}, "[34]": {"system": "SN12C", "assay": "Cytostatic activity in human SN12C cells assessed as tumor growth inhibition measured after 48 hrs by NCI protocol based SRB assay"}, "[35]": {"system": "CAKI-1", "assay": "Cytostatic activity in human CAKI-1 cells assessed as tumor growth inhibition measured after 48 hrs by NCI protocol based SRB assay"}, "[36]": {"system": "A498", "assay": "Cytostatic activity in human A498 cells assessed as tumor growth inhibition measured after 48 hrs by NCI protocol based SRB assay"}, "[37]": {"system": "UO-31", "assay": "Cytostatic activity in human UO-31 cells assessed as tumor growth inhibition measured after 48 hrs by NCI protocol based SRB assay"}, "[38]": {"system": "BT-549", "assay": "Cytostatic activity in human BT-549 cells assessed as tumor growth inhibition measured after 48 hrs by NCI protocol based SRB assay"}, "[39]": {"system": "MDA-MB-468", "assay": "Cytostatic activity in human MDA-MB-468 cells assessed as tumor growth inhibition measured after 48 hrs by NCI protocol based SRB assay"}, "[40]": {"settings": "read-out: LC50 (the source's name)"}},
  "note": "The source made the active and inactive calls. No cut-off for these calls is given here.",
  "data": [
    {"smiles": "Cc1ccc(-c2nc3c(c(-c4ccccc4)nn3-c3ccccc3)c(-c3ccc(O)cc3)c2C#N)cc1", "values": [
      {"measurement": "Activity", "setting": "[1]", "value": "Dde"},
      {"measurement": "Activity", "setting": "[2]", "value": "Active"}
    ]},
    {"smiles": "N#Cc1c(-c2ccccc2)nc2c(c(-c3ccccc3)nn2-c2ccccc2)c1-c1ccc(O)cc1", "values": [
      {"measurement": "GI50", "setting": "[3]", "value": 2.68, "unit": "µM"},
      {"measurement": "CC50", "setting": "[3]; [40]", "value": "> 100", "unit": "µM"},
      {"measurement": "GI50", "setting": "[4]", "value": 2.57, "unit": "µM"},
      {"measurement": "CC50", "setting": "[4]; [40]", "value": 84.2, "unit": "µM"},
      {"measurement": "GI50", "setting": "[5]", "value": 1.92, "unit": "µM"},
      {"measurement": "CC50", "setting": "[5]; [40]", "value": 21.9, "unit": "µM"},
      {"measurement": "GI50", "setting": "[6]", "value": 2.32, "unit": "µM"},
      {"measurement": "CC50", "setting": "[6]; [40]", "value": "> 100", "unit": "µM"},
      {"measurement": "GI50", "setting": "[7]", "value": 1.78, "unit": "µM"},
      {"measurement": "CC50", "setting": "[7]; [40]", "value": 8.26, "unit": "µM"},
      {"measurement": "GI50", "setting": "[8]", "value": 2.51, "unit": "µM"},
      {"measurement": "CC50", "setting": "[8]; [40]", "value": 54.7, "unit": "µM"},
      {"measurement": "GI50", "setting": "[9]", "value": 1.86, "unit": "µM"},
      {"measurement": "CC50", "setting": "[9]; [40]", "value": 7.39, "unit": "µM"},
      {"measurement": "GI50", "setting": "[10]", "value": 1.75, "unit": "µM"},
      {"measurement": "CC50", "setting": "[10]; [40]", "value": 5.79, "unit": "µM"},
      {"measurement": "GI50", "setting": "[11]", "value": 1.58, "unit": "µM"},
      {"measurement": "CC50", "setting": "[11]; [40]", "value": 5.86, "unit": "µM"},
      {"measurement": "GI50", "setting": "[12]", "value": 2.87, "unit": "µM"},
      {"measurement": "CC50", "setting": "[12]; [40]", "value": 2.98, "unit": "µM"},
      {"measurement": "GI50", "setting": "[13]", "value": 2.16, "unit": "µM"},
      {"measurement": "CC50", "setting": "[13]; [40]", "value": 31.8, "unit": "µM"},
      {"measurement": "GI50", "setting": "[14]", "value": 1.66, "unit": "µM"},
      {"measurement": "CC50", "setting": "[14]; [40]", "value": 5.69, "unit": "µM"},
      {"measurement": "GI50", "setting": "[15]", "value": 1.03, "unit": "µM"},
      {"measurement": "CC50", "setting": "[15]; [40]", "value": 5.37, "unit": "µM"},
      {"measurement": "GI50", "setting": "[16]", "value": 1.7, "unit": "µM"},
      {"measurement": "CC50", "setting": "[16]; [40]", "value": 6.44, "unit": "µM"},
      {"measurement": "GI50", "setting": "[17]", "value": 1.86, "unit": "µM"},
      {"measurement": "CC50", "setting": "[17]; [40]", "value": 90, "unit": "µM"},
      {"measurement": "GI50", "setting": "[18]", "value": 2, "unit": "µM"},
      {"measurement": "CC50", "setting": "[18]; [40]", "value": 9.92, "unit": "µM"},
      {"measurement": "TGI", "setting": "[19]", "value": 13.4, "unit": "µM"},
      {"measurement": "TGI", "setting": "[20]", "value": 23.7, "unit": "µM"},
      {"measurement": "TGI", "setting": "[21]", "value": "> 100", "unit": "µM"},
      {"measurement": "TGI", "setting": "[22]", "value": 6.87, "unit": "µM"},
      {"measurement": "TGI", "setting": "[23]", "value": 3.84, "unit": "µM"},
      {"measurement": "TGI", "setting": "[24]", "value": 4.76, "unit": "µM"},
      {"measurement": "TGI", "setting": "[25]", "value": 3.47, "unit": "µM"},
      {"measurement": "TGI", "setting": "[26]", "value": 6.44, "unit": "µM"},
      {"measurement": "TGI", "setting": "[27]", "value": 2.76, "unit": "µM"},
      {"measurement": "TGI", "setting": "[28]", "value": 4.29, "unit": "µM"},
      {"measurement": "TGI", "setting": "[29]", "value": 9.14, "unit": "µM"},
      {"measurement": "TGI", "setting": "[30]", "value": 7.28, "unit": "µM"},
      {"measurement": "TGI", "setting": "[31]", "value": 3.05, "unit": "µM"},
      {"measurement": "TGI", "setting": "[32]", "value": 3.62, "unit": "µM"},
      {"measurement": "TGI", "setting": "[33]", "value": 3.41, "unit": "µM"},
      {"measurement": "TGI", "setting": "[34]", "value": 3.04, "unit": "µM"},
      {"measurement": "TGI", "setting": "[35]", "value": 6.7, "unit": "µM"},
      {"measurement": "TGI", "setting": "[36]", "value": 3.07, "unit": "µM"},
      {"measurement": "TGI", "setting": "[37]", "value": 4.17, "unit": "µM"},
      {"measurement": "TGI", "setting": "[38]", "value": 4.45, "unit": "µM"},
      {"measurement": "TGI", "setting": "[39]", "value": 5.57, "unit": "µM"}
    ]}
  ]
}
